Assay results reported in patent US20110060056A1, “Inhibition of the Survival of Gastric Cancer by Cyclohexenone Compounds from Antrodia Camphorata” (GOLDEN BIOTECHNOLOGY CORPORATION, priority 2009, published 2011).

System: gastric cancer cell line TSGH-9201
Test: In vitro survival assay (MTT) for anti-gastric cancer effects
Format: cell-based
Settings: Homo sapiens, TSGH-9201 cells, 48 hours treatment, read-out: IC50 (half inhibition concentration), survival of gastric cancer cells
Description: Inhibiting effects of gastric cancer cells by cyclohexenone compounds of Antrodia camphorata from example 1 were assessed according to the anticancer-drug screening model of National Cancer Institute (NCI). The compound 4-hydroxy-2,3-dimethoxy-6-methyl-5-(3,7,11-trimethyl-dodeca-2,6,10-trienyl)-cyclohex-2-enone from example 1 was added into the culture media of gastric cancer cell line TSGH-9201 to determine the survival rates. Survival of cell was analyzed using MTT assay. TSGH-9201 cell line was a human gastric carcinoma cell line.
MTT assay is commonly used to analyze cell proliferation, survival rate of viable cells and cytotoxicity. MTT (3[4,5-dimethylthiazol-2-yl]-2,5-diphenyltetrazolium bromide) is a yellow dye which can be converted to water-insoluble purple formazan on the reductive cleavage of its tetrazolium ring by the succinate tetrazolium reductase in mitochondria of cells. The amount of formazan produced is used to detect the number of viable cells and calculate the survival rates.
The TSGH-9201 cells were cultivated in DMEM medium supplemented with 10% fetal bovine serum, 100 U/ml of Penicillin and 100 μg/ml of Streptomycin at 37° C., 5% CO2 for 24 hours. Proliferated cells were washed once with PBS, treated with 1× trypsin-EDTA, and centrifuged at 1200 rpm for 5 min. […] The absorbances were measured at 570 nm with an ELISA Reader to determine the survival rates.

Compound: COC1=C(OC)C(O)C(C/C=C(\C)CC/C=C(\C)CCC=C(C)C)C(C)C1=O (stereo not shown) [formula 2, 4-hydroxy-2,3-dimethoxy-6-methyl-5-(3,7,11-trimethyl-dodeca-2,6,10-trienyl)-cyclohex-2-enone]
- IC50: 1.32 µg/mL
